This note sets out measurements from patent US20230372498A1, “PLK1 SELECTIVE DEGRADATION INDUCING COMPOUND” (UPPTHERA, priority 2020, published 2023).

Structures are written as SMILES.

The assay deals with T1, PLK1 (Homo sapiens, UniProt P53350).
T1 construct: endogenous in cells; host or cells: HeLa
The assay is described as follows: PLK1 protein degradation in HeLa cells, Western blotting (PLK1/GAPDH ratio). The note with it: 6 hours compound incubation; for DC50: measured only if the grade of Dmax is A or B; for Dmax: thymidine block and release, 10 points three-fold from 3 μM, PLK1 to GAPDH ratio, read-out: Dmax. It is filed as cell-based. Summed up: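 Thymidine-synchronised HeLa cells (2 mM, 24 h) released 4 h into complete medium, then treated 6 h with compound in 10-point 3-fold dilutions from 3 μM. RIPA lysates (15 μg protein) run on SDS-PAGE; PLK1 Western blot normalised to GAPDH.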
Background: In western blotting, separated proteins are transferred to a membrane and probed.

T1 sequence (P53350 whole entry): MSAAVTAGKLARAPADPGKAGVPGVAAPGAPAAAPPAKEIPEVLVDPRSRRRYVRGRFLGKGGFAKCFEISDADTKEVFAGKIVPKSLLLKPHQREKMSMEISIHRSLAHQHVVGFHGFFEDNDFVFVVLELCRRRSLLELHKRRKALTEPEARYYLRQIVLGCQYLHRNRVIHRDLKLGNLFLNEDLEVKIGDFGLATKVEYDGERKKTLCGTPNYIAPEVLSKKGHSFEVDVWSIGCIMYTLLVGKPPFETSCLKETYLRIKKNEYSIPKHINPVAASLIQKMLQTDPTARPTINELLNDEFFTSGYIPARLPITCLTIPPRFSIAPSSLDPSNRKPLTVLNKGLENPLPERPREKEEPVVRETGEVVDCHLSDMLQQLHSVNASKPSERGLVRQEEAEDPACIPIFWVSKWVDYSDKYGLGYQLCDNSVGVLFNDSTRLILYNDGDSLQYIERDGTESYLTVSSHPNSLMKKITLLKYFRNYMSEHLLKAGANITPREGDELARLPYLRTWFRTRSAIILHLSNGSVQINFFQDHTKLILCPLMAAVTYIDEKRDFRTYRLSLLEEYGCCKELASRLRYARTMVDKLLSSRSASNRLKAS

What is called DC50 is the midpoint of the concentration-degradation curve. As usually defined, the Dmax is the greatest extent of degradation seen. In the case of `COc1cc(C(=O)NC2CCN(C(=O)CCOCCNc3cccc4c3C(=O)N(C3CCC(=O)NC3=O)C4=O)CC2)c(F)cc1Nc1ncc2c(n1)N(C1CCCC1)CC(F)(F)C(=O)N2C` (stereo not drawn) [Compound 32, 4-((9-cyclopentyl-7,7-difluoro-5-methyl-6-oxo-6,7,8,9-tetrahydro-5H-pyrimido[4,5-b][1,4]diazepin-2-yl)amino)-N-(1-(3-(2-((2-(2,6-dioxopiperidin-3-yl)-1,3-dioxoisoindolin-4-yl)amino)ethoxy)propanoyl)piperidin-4-yl)-2-fluoro-5-methoxybenzamide], the DC50 was at most 50 nM and the greatest degradation seen (Dmax) was at least 80%. The matching figures for `COc1cc(C(=O)NC2CCN(C(=O)COCCOCCOCCOCCNc3cccc4c3C(=O)N(C3CCC(=O)NC3=O)C4=O)CC2)c(F)cc1Nc1ncc2c(n1)N(C1CCCC1)CC(F)(F)C(=O)N2C` (stereo not drawn) [Compound 34, 4-((9-cyclopentyl-7,7-difluoro-5-methyl-6-oxo-6,7,8,9-tetrahydro-5H-pyrimido[4,5-b][1,4]diazepin-2-yl)amino)-N-(1-(14-((2-(2,6-dioxopiperidin-3-yl)-1,3-dioxoisoindolin-4-yl)amino)-3,6,9,12-tetraoxatetradecanoyl)piperidin-4-yl)-2-fluoro-5-methoxybenzamide]: at most 50 nM and at least 80%. Consider `COc1cc(C(=O)NC2CCN(CCOCCCCCCCCOCC(=O)Nc3cccc4c3C(=O)N(C3CCC(=O)NC3=O)C4=O)CC2)c(F)cc1Nc1ncc2c(n1)N(C1CCCC1)CC(F)(F)C(=O)N2C` (stereo not drawn) [Compound 28, 4-((9-cyclopentyl-7,7-difluoro-5-methyl-6-oxo-6,7,8,9-tetrahydro-5H-pyrimido[4,5-b][1,4]diazepin-2-yl)amino)-N-(1-(2-((8-(2-((2-(2,6-dioxopiperidin-3-yl)-1,3-dioxoisoindolin-4-yl)amino)-2-oxoethoxy)octyl)oxy)ethyl)piperidin-4-yl)-2-fluoro-5-methoxybenzamide], for which the DC50 was at most 500 nM and the Dmax was 60 to 80%. For `COc1cc(C(=O)NC2CCN(CCCCCCCNc3cccc4c3C(=O)N(C3CCC(=O)NC3=O)C4=O)CC2)c(F)cc1Nc1ncc2c(n1)N(C1CCCC1)CC(F)(F)C(=O)N2C` (stereo not drawn) [Compound 11, 4-((9-cyclopentyl-7,7-difluoro-5-methyl-6-oxo-6,7,8,9-tetrahydro-5H-pyrimido[4,5-b][1,4]diazepin-2-yl)amino)-N-(1-(7-((2-(2,6-dioxopiperidin-3-yl)-1,3-dioxoisoindolin-4-yl)amino)heptyl)piperidin-4-yl)-2-fluoro-5-methoxybenzamide] the same measures were at most 500 nM and 60 to 80%. Regarding `COc1cc(C(=O)N[C@H]2CCN(C(=O)CCC(=O)N3CCN(c4cccc5c4C(=O)N(C4CCC(=O)NC4=O)C5=O)CC3)C2)c(F)cc1Nc1ncc2c(n1)N(C1CCCC1)CC(F)(F)C(=O)N2C` (stereo partly drawn) [Compound 140, 4-((9-cyclopentyl-7,7-difluoro-5-methyl-6-oxo-6,7,8,9-tetrahydro-5H-pyrimido[4,5-b][1,4]diazepin-2-yl)amino)-N-((3S)-1-(4-(4-(2-(2,6-dioxopiperidin-3-yl)-1,3-dioxoisoindolin-4-yl)piperazin-1-yl)-4-oxobutanoyl)pyrrolidin-3-yl)-2-fluoro-5-methoxybenzamide], the 50% degradation concentration (DC50) was at most 50 nM and the Dmax was at least 80%. The matching figures for `COc1cc(C(=O)NC2CCN(CCCCCCCCCCCNc3cccc4c3C(=O)N(C3CCC(=O)NC3=O)C4=O)CC2)c(F)cc1Nc1ncc2c(n1)N(C1CCCC1)CC(F)(F)C(=O)N2C` (stereo not drawn) [Compound 15, 4-((9-cyclopentyl-7,7-difluoro-5-methyl-6-oxo-5H,6H,7H,8H,9H-pyrimido[4,5-b][1,4]diazepin-2-yl)amino)-N-(1-(11-((2-(2,6-dioxopiperidin-3-yl)-1,3-dioxo-2,3-dihydro-1H-isoindol-4-yl)amino)undecyl)piperidin-4-yl)-2-fluoro-5-methoxybenzamide]: above 500 nM and 60 to 80%.

As for `COc1cc(C(=O)NCCOCCOCCNc2ccc3c(c2)C(=O)N(C2CCC(=O)NC2=O)C3=O)c(F)cc1Nc1ncc2c(n1)N(C1CCCC1)CC(F)(F)C(=O)N2C` (stereo not drawn) [Compound 163, 4-((9-cyclopentyl-7,7-difluoro-5-methyl-6-oxo-6,7,8,9-tetrahydro-5H-pyrimido[4,5-b][1,4]diazepin-2-yl)amino)-N-(2-(2-(2-((2-(2,6-dioxopiperidin-3-yl)-1,3-dioxoisoindolin-5-yl)amino)ethoxy)ethoxy)ethyl)-2-fluoro-5-methoxybenzamide], the 50% degradation concentration (DC50) is at most 500 nM and the maximal degradation (Dmax) is 60 to 80%. As to `CN1C(=O)C(F)(F)CN(C2CCCC2)c2nc(Nc3ccc(C(=O)N[C@H]4CCN(C(=O)CCC(=O)N5CCN(c6ccc7c(c6)C(=O)N(C6CCC(=O)NC6=O)C7=O)CC5)C4)cc3)ncc21` (stereo partly drawn) [Compound 146, 4-((9-cyclopentyl-7,7-difluoro-5-methyl-6-oxo-6,7,8,9-tetrahydro-5H-pyrimido[4,5-b][1,4]diazepin-2-yl)amino)-N-((3S)-1-(4-(4-(2-(2,6-dioxopiperidin-3-yl)-1,3-dioxoisoindolin-5-yl)piperazin-1-yl)-4-oxobutanoyl)pyrrolidin-3-yl)benzamide], the Dmax is below 60%.

In the case of `COc1cc(C(=O)NCCCOCCCOCCNc2cccc3c2C(=O)N(C2CCC(=O)NC2=O)C3=O)ccc1Nc1ncc2c(n1)N(C1CCCC1)CC(F)(F)C(=O)N2C` (stereo not drawn) [Example 169, 4-((9-cyclopentyl-7,7-difluoro-5-methyl-6-oxo-6,7,8,9-tetrahydro-5H-pyrimido[4,5-b][1,4]diazepin-2-yl)amino)-N-(3-(3-(2-((2-(2,6-dioxopiperidin-3-yl)-1,3-dioxoisoindolin-4-yl)amino)ethoxy)propoxy)propyl)-3-methoxybenzamide], the greatest degradation seen (Dmax) was at least 80%.

As to `COc1cc(C(=O)N[C@@H]2CCN(C(=O)CCCCCNc3cccc4c3C(=O)N(C3CCC(=O)NC3=O)C4=O)C2)c(F)cc1Nc1ncc2c(n1)N(C1CCCC1)CC(F)(F)C(=O)N2C` (stereo partly drawn) [Compound 120, 4-((9-cyclopentyl-7,7-difluoro-5-methyl-6-oxo-6,7,8,9-tetrahydro-5H-pyrimido[4,5-b][1,4]diazepin-2-yl)amino)-N-((3R)-1-(6-((2-(2,6-dioxopiperidin-3-yl)-1,3-dioxoisoindolin-4-yl)amino)hexanoyl)pyrrolidin-3-yl)-2-fluoro-5-methoxybenzamide], the DC50 was at most 50 nM and the greatest degradation seen (Dmax) was at least 80%. The matching figures for `COc1cc(C(=O)NC2CCN(CCOCCOCCOCCOCCOCCNc3cccc4c3C(=O)N(C3CCC(=O)NC3=O)C4=O)CC2)c(F)cc1Nc1ncc2c(n1)N(C1CCCC1)CC(F)(F)C(=O)N2C` (stereo not drawn) [Compound 5, 4-((9-cyclopentyl-7,7-difluoro-5-methyl-6-oxo-6,7,8,9-tetrahydro-5H-pyrimido[4,5-b][1,4]diazepin-2-yl)amino)-N-(1-(17-((2-(2,6-dioxopiperidin-3-yl)-1,3-dioxoisoindolin-4-yl)amino)-3,6,9,12,15-pentaoxaheptadecyl)piperidin-4-yl)-2-fluoro-5-methoxybenzamide]: at most 50 nM and at least 80%.

With `COc1cc(C(=O)N[C@H]2CCN(C(=O)CCNC(=O)CNc3cccc4c3C(=O)N(C3CCC(=O)NC3=O)C4=O)C2)c(F)cc1Nc1ncc2c(n1)N(C1CCCC1)CC(F)(F)C(=O)N2C` (stereo partly drawn) [Compound 113, 4-((9-cyclopentyl-7,7-difluoro-5-methyl-6-oxo-6,7,8,9-tetrahydro-5H-pyrimido[4,5-b][1,4]diazepin-2-yl)amino)-N-((3S)-1-(3-(2-((2-(2,6-dioxopiperidin-3-yl)-1,3-dioxoisoindolin-4-yl)amino)acetamido)propanoyl)pyrrolidin-3-yl)-2-fluoro-5-methoxybenzamide], the Dmax was below 60%.

Regarding `CN1C(=O)C(F)(F)CN(C2CCCC2)c2nc(Nc3ccc(C(=O)N[C@H]4CCN(C(=O)CCC(=O)N5CCN(c6cccc7c6C(=O)N(C6CCC(=O)NC6=O)C7=O)CC5)C4)cc3)ncc21` (stereo partly drawn) [Compound 142, 4-((9-cyclopentyl-7,7-difluoro-5-methyl-6-oxo-6,7,8,9-tetrahydro-5H-pyrimido[4,5-b][1,4]diazepin-2-yl)amino)-N-((3S)-1-(4-(4-(2-(2,6-dioxopiperidin-3-yl)-1,3-dioxoisoindolin-4-yl)piperazin-1-yl)-4-oxobutanoyl)pyrrolidin-3-yl)benzamide], the DC50 was at most 500 nM and the maximal degradation (Dmax) is 60 to 80%. For the compound `COc1cc(C(=O)NCCOCCOCCOCCNc2cccc3c2C(=O)N(C2CCC(=O)NC2=O)C3=O)c(F)cc1Nc1ncc2c(n1)N(C1CCCC1)CC(F)(F)C(=O)N2C` (stereo not drawn) [Compound 153, 4-((9-cyclopentyl-7,7-difluoro-5-methyl-6-oxo-6,7,8,9-tetrahydro-5H-pyrimido[4,5-b][1,4]diazepin-2-yl)amino)-N-(2-(2-(2-(2-((2-(2,6-dioxopiperidin-3-yl)-1,3-dioxoisoindolin-4-yl)amino)ethoxy)ethoxy)ethoxy)ethyl)-2-fluoro-5-methoxybenzamide], the 50% degradation concentration (DC50) is at most 50 nM and the Dmax is at least 80%.

Take `COc1cc(C(=O)N[C@H]2CCN(C(=O)CCCCCNc3cccc4c3C(=O)N(C3CCC(=O)NC3=O)C4=O)C2)c(F)cc1Nc1ncc2c(n1)N(C1CCCC1)CC(F)(F)C(=O)N2C` (stereo partly drawn) [Compound 119, 4-((9-cyclopentyl-7,7-difluoro-5-methyl-6-oxo-6,7,8,9-tetrahydro-5H-pyrimido[4,5-b][1,4]diazepin-2-yl)amino)-N-((3S)-1-(6-((2-(2,6-dioxopiperidin-3-yl)-1,3-dioxoisoindolin-4-yl)amino)hexanoyl)pyrrolidin-3-yl)-2-fluoro-5-methoxybenzamide]: the DC50 is at most 50 nM and the greatest degradation seen (Dmax) was at least 80%.
